Results as given in PMC12070314, “Efficient Small-Molecule Reversal Agents for Anticoagulant Fondaparinux” (ACS Pharmacology & Translational Science, 2025).
pKd: −log10 of the molar value.

What was measured:
[1] = tested on: FXa/ATIII inhibited by LMWH; assay: In vitro FXa/ATIII enzymatic assay with LMWH; type: biochemical, human; settings: [LMWH] = [antidote] = 0.1 or 10 μM, Figure S3
Experimental: Recombinant antithrombin III and coagulation factor Xa were obtained from two different kits, Berichrom Heparin test (SIEMENS) and Kinetichrome Anti-Xa Heparin kit (Iduron). Methods for both kits are similar, but not identical. Differences will be spotted by method A (SIEMENS) and method B (Iduron). Following the manufacturer’s instructions, stock solutions were prepared as follows: human antithrombin III (1 IU/mL) and factor Xa reagent (0.4 μg/mL, human plasma fraction with additives Tris, sodium chloride, and EDTA). Chromogenic substrate specific for factor Xa was dissolved at 4 mM concentration (A: Z-D-Leu-Gly-Arg-ANBA-methyl amide, and B: Z-D-Arg-Gly-Arg-pNA). Additionally, either 4-nitroaniline (A) or N-Boc-4-nitroaniline (B) was added to the substrate solution at a concentration of 1.6 mM and used as an internal standard to quantify the hydrolysis of the chromogenic substrate. All compounds were dissolved in Milli-Q water at the desired stock concentrations prior to start of the assays and kept at 4 °C. […] FXa/ATIII activity was represented as the percent of hydrolysis, which was calculated from the normalized area of the cleaved peptide at 405 nm at each corresponding time point. […]

[2] = earlier work of the authors; reference number not given; read-out: Apparent affinity for heparin, K D^app; cited from earlier work
[3] = NMR titration and DOSY binding study with fondaparinux; settings: water (D2O buffer), neutral pH
Description: The [3AC–fond] binding was additionally studied by NMR. Titration of fond with 3AC modifies several ^1H and ^13C NMR signals that can be readily monitored by ^1H and ^1H–^13C HSQC NMR experiments (Figures and S5–S7). A close analysis of the corresponding chemical-shift perturbations (Figures C and S8) allows determination of the sugar rings to be more affected by the presence of the ligand (see the chemical structure with arbitrary labeling of the rings in Figure A). We hypothesized that [fond–3AC] binding occurs by polar interactions (through the ammonium and OH groups of 3AC with sulfate, carboxylate, and OH residues of fond) and nonpolar contacts (by CH–π interactions between aromatic rings of 3AC and pyranose CH bonds of fond). […] The corresponding ^1H NMR spectra in 90% H2O/10% D2O at pH 8.2 and 288 K allow detection of the NH-sulfamate protons (Figures D and S9) and confirmed the stronger perturbation of ring V. The conformational behavior of fond in the absence and presence of 3AC was additionally studied by acquiring a series of 2D NOESY and 2D ROESY spectra (Figures S10–S13). […]
One- and two-dimensional (1D and 2D) NMR experiments were performed at 298 K on a 500 MHz Bruker AVANCE III HD instrument equipped with a z-gradient (65.7 G cm^–1) inverse TCI-cryoprobe. Samples were dissolved in 5 mM Tris-d11 buffer with 50 mM NaCl (in D2O, pH 7.5, uncorrected pH meter reading). […]

SMILES: Oc1ccccc1CNCCCNCCCCNCCCNCc1ccc2c(c1)Cc1ccccc1-2 [Compound 3AC]
- Percent recovery of peptide substrate hydrolysis vs LMWH [1]: more active than prot and similar to cir
- pKd [2]: ~6.30
- Binding to fond by NMR [3]: strong binding

SMILES: Oc1ccc2ccccc2c1CNCCCNCCCCNCCCNCc1c(O)ccc2ccccc12 [Compound 3FF]
- Percent recovery of peptide substrate hydrolysis vs LMWH [1]: more active than prot and similar to cir
- Binding to fond by NMR [3]: slightly weaker binding
